Test results taken from ChEMBL document CHEMBL1909046, “DrugMatrix in vitro pharmacology data”.

Key:
B2 bradykinin receptor = target: T1, B2 bradykinin receptor (Homo sapiens, UniProt P30411); type: cell membranes, Membrane; conditions: chem-1; also: in other assays of this panel Not Active means under 50% inhibition at 10 µM
T1 sequence (P30411 whole entry): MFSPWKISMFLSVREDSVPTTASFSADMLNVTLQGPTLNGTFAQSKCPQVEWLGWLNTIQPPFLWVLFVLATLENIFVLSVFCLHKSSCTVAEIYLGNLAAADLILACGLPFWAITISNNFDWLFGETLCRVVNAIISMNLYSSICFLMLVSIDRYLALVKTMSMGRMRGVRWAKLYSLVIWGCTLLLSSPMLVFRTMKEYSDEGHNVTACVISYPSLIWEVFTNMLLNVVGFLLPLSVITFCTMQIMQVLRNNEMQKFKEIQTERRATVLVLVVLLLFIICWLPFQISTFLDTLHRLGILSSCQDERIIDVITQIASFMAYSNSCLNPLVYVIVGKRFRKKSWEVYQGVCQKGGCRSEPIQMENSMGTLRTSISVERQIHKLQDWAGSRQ

[1] = target: T2, Amine oxidase [flavin-containing] A (Homo sapiens, UniProt P21397); assay: DRUGMATRIX: Monoamine Oxidase MAO-A enzyme inhibition (substrate: Kynuramine); parameters: species or system BTI-TN-5B1-4; conditions: bti-tn-5b1-4; Not Active = under 50% inhibition at 10 µM
T2 sequence (P21397 whole entry): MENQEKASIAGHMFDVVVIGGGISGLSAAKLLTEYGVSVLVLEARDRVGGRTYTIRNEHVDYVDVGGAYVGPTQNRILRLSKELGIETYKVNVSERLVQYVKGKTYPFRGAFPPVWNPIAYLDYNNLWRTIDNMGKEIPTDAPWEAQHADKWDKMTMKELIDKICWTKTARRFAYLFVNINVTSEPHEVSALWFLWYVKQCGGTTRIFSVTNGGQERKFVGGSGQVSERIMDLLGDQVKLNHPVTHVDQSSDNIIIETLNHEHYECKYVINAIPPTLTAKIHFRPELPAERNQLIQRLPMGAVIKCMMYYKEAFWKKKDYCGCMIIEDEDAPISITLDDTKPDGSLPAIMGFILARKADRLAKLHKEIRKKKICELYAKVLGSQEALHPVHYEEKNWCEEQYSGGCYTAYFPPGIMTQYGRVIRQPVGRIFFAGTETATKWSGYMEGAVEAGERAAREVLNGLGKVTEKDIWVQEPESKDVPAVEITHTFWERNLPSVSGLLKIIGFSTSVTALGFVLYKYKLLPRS

[2] = DRUGMATRIX: Phosphodiesterase PDE3 enzyme inhibition (substrate: [3H]cAMP + cAMP); type: tissue-based, Homo sapiens; conditions: platelet; Not Active = under 50% inhibition at 10 µM
[3] = target: C-C chemokine receptor type 5 (Homo sapiens, UniProt P51681); type: cell membranes, Membrane; conditions: hek293; also: in other assays of this panel Not Active means under 50% inhibition at 10 µM
Sequence of C-C chemokine receptor type 5 (P51681 whole entry): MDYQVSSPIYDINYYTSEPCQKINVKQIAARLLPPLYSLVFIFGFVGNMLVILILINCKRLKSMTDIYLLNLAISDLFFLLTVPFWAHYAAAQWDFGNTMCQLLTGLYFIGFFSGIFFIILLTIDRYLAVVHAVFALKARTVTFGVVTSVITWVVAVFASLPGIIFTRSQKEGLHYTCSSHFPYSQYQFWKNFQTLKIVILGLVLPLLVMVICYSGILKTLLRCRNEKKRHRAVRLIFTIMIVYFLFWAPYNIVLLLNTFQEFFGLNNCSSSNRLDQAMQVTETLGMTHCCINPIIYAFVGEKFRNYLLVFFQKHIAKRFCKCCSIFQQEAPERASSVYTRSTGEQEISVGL

[4] = target: Kappa-type opioid receptor (Homo sapiens, UniProt P41145); assay: DRUGMATRIX: Opiate kappa (OP2, KOP) radioligand binding (ligand: [3H] Diprenorphine); type: cell membranes, HEK293, Membrane; conditions: hek293; Not Active = under 50% inhibition at 10 µM
Carbonic anhydrase 2 = Carbonic anhydrase 2 (Homo sapiens, UniProt P00918); assay: DRUGMATRIX: Carbonic Anhydrase II enzyme inhibition (substrate: 4-Nitrophenyl acetate (4-NPA)); type: tissue-based, Erythrocyte; conditions: erythrocyte; Not Active = under 50% inhibition at 10 µM
[5] = target: Epidermal growth factor receptor (Homo sapiens, UniProt P00533); assay: DRUGMATRIX: Protein Tyrosine Kinase, EGF Receptor enzyme inhibition (substrate: Poly(Glu:Tyr)); type: cell-based, Insect cells; conditions: insect cells; Not Active = under 50% inhibition at 10 µM
Sequence of Epidermal growth factor receptor (P00533 whole entry): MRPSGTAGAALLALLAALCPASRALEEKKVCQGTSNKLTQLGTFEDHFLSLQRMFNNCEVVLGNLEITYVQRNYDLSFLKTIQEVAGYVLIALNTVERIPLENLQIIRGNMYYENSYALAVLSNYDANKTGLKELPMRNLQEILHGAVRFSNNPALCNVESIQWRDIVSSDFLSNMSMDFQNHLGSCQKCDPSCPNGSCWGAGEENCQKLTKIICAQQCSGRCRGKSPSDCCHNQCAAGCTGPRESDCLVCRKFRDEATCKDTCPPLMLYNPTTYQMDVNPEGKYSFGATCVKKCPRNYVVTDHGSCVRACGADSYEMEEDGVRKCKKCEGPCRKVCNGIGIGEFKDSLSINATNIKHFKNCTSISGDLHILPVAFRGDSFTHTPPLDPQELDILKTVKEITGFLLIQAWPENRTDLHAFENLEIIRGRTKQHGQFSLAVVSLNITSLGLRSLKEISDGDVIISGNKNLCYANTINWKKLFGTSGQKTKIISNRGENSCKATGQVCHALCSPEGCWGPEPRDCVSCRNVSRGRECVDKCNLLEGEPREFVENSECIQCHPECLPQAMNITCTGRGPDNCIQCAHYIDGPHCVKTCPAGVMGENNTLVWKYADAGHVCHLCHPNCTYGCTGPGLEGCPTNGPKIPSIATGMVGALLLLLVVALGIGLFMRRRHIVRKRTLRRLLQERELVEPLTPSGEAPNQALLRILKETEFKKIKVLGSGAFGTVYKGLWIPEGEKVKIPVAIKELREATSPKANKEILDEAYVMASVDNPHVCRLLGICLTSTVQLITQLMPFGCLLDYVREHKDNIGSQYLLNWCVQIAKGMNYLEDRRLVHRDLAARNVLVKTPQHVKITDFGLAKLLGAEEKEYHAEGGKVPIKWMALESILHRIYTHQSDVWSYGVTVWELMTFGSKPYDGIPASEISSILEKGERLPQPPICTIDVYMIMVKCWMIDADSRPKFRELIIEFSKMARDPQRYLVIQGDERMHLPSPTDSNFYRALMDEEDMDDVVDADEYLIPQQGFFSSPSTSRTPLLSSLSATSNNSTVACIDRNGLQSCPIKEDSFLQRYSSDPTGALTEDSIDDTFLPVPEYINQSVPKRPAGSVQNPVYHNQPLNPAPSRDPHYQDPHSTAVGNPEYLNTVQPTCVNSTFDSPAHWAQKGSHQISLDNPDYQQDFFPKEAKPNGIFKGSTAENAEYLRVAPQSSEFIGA

[6] = target: Protein kinase C alpha type (Homo sapiens, UniProt P17252); type: cell-based; conditions: sf9;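 also: inhibition of PKCalpha kinase activity measured in an enzyme assay with histone as the phosphorylation substrate; in other assays of this panel Not Active means under 50% inhibition at 10 µM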
[7] = target: Prostaglandin G/H synthase 1 (Homo sapiens, UniProt P23219); assay: biochemical; type: tissue-based, Platelet; conditions: platelet;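 also: inhibition of COX-1 enzyme activity, with arachidonic acid supplied as substrate; in other assays of this panel Not Active means under 50% inhibition at 10 µM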
Sequence of Prostaglandin G/H synthase 1 (P23219 whole entry): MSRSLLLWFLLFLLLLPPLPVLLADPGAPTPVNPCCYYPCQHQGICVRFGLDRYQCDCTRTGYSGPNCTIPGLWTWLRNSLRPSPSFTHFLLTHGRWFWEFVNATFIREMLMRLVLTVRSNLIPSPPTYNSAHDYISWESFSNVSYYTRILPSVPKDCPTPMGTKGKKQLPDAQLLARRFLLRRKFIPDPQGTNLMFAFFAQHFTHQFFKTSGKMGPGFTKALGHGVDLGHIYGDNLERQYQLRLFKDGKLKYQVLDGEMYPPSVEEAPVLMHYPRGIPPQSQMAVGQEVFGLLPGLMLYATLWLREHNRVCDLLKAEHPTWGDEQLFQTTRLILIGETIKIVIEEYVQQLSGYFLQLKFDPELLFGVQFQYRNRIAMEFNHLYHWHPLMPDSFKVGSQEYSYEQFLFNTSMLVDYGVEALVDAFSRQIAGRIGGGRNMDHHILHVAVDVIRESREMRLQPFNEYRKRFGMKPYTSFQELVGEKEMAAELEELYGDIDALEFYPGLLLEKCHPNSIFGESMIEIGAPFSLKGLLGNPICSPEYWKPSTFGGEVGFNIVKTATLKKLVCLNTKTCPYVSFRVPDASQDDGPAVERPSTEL

[8] = target: T3, Type-2 angiotensin II receptor (Homo sapiens, UniProt P50052); type: cell-based; conditions: cho-k1; also: in other assays of this panel Not Active means under 50% inhibition at 10 µM
T3 sequence (P50052 whole entry): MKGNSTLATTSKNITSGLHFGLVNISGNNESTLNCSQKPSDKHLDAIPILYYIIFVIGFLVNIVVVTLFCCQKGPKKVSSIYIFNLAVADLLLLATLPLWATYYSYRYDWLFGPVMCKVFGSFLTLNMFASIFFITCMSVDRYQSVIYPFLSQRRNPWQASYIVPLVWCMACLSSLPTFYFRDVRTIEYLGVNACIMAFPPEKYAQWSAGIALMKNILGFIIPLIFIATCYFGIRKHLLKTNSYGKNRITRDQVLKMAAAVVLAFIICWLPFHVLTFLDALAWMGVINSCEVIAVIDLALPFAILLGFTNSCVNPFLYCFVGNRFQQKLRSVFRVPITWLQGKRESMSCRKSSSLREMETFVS

[9] = target: Delta-type opioid receptor (Homo sapiens, UniProt P41143); type: cell membranes, HEK293, Membrane; conditions: hek293; also: in other assays of this panel Not Active means under 50% inhibition at 10 µM
Sequence of Delta-type opioid receptor (P41143 whole entry): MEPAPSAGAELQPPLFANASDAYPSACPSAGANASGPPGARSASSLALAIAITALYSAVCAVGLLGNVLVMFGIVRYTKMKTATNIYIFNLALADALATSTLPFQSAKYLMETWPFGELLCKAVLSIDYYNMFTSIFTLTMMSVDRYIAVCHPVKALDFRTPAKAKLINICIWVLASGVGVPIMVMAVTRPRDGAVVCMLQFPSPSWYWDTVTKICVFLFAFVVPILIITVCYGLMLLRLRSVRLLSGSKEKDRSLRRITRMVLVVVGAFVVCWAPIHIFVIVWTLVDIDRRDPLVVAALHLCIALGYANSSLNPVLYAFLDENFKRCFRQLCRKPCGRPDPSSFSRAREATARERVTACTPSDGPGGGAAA

Cytochrome P450 2C9 = Cytochrome P450 2C9 (Homo sapiens, UniProt P11712); conditions: bti-tn-5b1-4; also: in other assays of this panel Not Active means under 50% inhibition at 10 µM
Sequence of Cytochrome P450 2C9 (P11712 whole entry): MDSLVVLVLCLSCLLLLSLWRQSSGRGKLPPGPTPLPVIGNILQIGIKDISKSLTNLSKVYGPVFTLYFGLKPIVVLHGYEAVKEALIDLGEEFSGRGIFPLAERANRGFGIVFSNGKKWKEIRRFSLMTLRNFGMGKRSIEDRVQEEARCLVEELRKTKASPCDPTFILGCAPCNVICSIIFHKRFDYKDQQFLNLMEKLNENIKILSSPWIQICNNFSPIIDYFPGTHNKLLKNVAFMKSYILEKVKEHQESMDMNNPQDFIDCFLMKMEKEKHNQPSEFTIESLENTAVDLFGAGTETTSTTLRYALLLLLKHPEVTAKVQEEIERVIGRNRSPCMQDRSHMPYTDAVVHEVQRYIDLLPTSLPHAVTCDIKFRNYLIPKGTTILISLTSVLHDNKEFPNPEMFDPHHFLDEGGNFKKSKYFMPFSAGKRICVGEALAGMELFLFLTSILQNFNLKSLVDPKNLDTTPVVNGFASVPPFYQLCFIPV

Cannabinoid receptor 1 = Cannabinoid receptor 1 (Homo sapiens, UniProt P21554); type: cell membranes, Membrane; conditions: chem-1; also: in other assays of this panel Not Active means under 50% inhibition at 10 µM
Sequence of Cannabinoid receptor 1 (P21554 whole entry): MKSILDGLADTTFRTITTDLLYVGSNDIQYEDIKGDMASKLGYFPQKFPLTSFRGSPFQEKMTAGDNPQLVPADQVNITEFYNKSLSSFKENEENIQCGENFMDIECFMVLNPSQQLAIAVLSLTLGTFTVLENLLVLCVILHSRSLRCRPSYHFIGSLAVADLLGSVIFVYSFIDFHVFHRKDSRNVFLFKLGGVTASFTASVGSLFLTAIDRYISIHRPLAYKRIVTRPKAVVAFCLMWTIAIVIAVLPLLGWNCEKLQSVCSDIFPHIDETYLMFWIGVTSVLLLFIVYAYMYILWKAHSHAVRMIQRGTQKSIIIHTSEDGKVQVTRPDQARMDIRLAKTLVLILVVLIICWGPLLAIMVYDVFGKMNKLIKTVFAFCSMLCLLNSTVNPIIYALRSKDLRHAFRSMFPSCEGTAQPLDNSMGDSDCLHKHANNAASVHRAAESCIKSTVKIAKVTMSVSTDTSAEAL

Thromboxane-A synthase = target: T4, Thromboxane-A synthase (Homo sapiens, UniProt P24557); assay: biochemical; type: tissue-based, Platelet; conditions: platelet
T4 sequence (P24557 whole entry): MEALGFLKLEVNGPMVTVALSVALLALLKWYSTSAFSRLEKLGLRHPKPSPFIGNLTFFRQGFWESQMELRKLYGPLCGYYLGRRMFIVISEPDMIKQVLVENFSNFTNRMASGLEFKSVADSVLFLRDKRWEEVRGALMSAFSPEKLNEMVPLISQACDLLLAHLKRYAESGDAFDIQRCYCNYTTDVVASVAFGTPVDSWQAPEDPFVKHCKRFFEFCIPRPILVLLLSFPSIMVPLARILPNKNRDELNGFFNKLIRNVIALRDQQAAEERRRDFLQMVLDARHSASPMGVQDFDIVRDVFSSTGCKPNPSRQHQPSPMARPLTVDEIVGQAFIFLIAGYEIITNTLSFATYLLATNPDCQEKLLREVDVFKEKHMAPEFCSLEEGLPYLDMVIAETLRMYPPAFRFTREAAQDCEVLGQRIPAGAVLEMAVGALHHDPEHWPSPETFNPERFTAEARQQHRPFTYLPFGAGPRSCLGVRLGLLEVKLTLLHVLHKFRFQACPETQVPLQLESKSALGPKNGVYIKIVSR

[10] = target: Sodium-dependent noradrenaline transporter (Homo sapiens, UniProt P23975); assay: DRUGMATRIX: Norepinephrine Transporter radioligand binding (ligand: [125I] RTI-55); type: cell membranes, MDCK, Membrane; conditions: mdck; Not Active = under 50% inhibition at 10 µM
Sequence of Sodium-dependent noradrenaline transporter (P23975 whole entry): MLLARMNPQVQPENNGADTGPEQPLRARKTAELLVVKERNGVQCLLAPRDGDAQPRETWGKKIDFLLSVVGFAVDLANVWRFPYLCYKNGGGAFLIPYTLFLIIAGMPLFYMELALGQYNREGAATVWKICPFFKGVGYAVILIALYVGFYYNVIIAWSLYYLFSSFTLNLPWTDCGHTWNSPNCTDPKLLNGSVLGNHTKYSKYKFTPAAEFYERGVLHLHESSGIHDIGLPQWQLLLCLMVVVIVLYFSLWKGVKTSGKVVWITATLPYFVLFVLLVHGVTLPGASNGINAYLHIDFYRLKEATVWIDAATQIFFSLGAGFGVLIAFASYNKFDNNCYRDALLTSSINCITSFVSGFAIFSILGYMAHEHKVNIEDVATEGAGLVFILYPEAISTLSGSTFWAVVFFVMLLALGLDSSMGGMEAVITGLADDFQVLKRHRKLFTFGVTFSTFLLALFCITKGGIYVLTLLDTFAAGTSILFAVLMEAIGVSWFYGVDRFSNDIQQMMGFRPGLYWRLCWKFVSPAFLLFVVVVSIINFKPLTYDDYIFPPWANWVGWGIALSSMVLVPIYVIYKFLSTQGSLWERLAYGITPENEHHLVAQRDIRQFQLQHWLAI

Melanocortin receptor 5 = Melanocortin receptor 5 (Homo sapiens, UniProt P33032); type: cell membranes, HEK293, Membrane; conditions: hek293; also: in other assays of this panel Not Active means under 50% inhibition at 10 µM

COc1ccc2c(c1)c(CC(=O)OCC(=O)O)c(C)n2C(=O)c1ccc(Cl)cc1 [ACEMETACIN]
Not Active: IC50 (B2 bradykinin receptor) | IC50 [1] | IC50 [2] | Ki [2] | IC50 [3] | IC50 [4] | IC50 (Carbonic anhydrase 2) | IC50 [5] | IC50 [6] | IC50 [7] | IC50 [8] | IC50 [9] | IC50 (Cytochrome P450 2C9) | Ki (Cytochrome P450 2C9) | IC50 (Cannabinoid receptor 1) | IC50 (Thromboxane-A synthase) | IC50 [10] | IC50 (Melanocortin receptor 5)

CC(C)(S)[C@@H](N)C(=O)O [PENICILLAMINE]
Not Active: IC50 (B2 bradykinin receptor) | IC50 [1] | IC50 [2] | Ki [2] | IC50 [3] | IC50 [4] | IC50 (Carbonic anhydrase 2) | IC50 [5] | IC50 [6] | IC50 [7] | IC50 [8] | IC50 [9] | IC50 (Cytochrome P450 2C9) | Ki (Cytochrome P450 2C9) | IC50 (Cannabinoid receptor 1) | IC50 (Thromboxane-A synthase) | IC50 [10] | IC50 (Melanocortin receptor 5)

Cc1[nH]cnc1CN1CCc2c(c3ccccc3n2C)C1=O [ALOSETRON]
Not Active: IC50 (B2 bradykinin receptor) | IC50 [1] | IC50 [2] | Ki [2] | IC50 [3] | IC50 [4] | IC50 (Carbonic anhydrase 2) | IC50 [5] | IC50 [6] | IC50 [7] | IC50 [8] | IC50 [9] | IC50 (Cytochrome P450 2C9) | Ki (Cytochrome P450 2C9) | IC50 (Cannabinoid receptor 1) | IC50 (Thromboxane-A synthase) | IC50 [10] | IC50 (Melanocortin receptor 5)

NS(=O)(=O)c1cc2c(cc1Cl)NCNS2(=O)=O [HYDROCHLOROTHIAZIDE]
Not Active: IC50 (B2 bradykinin receptor) | IC50 [1] | IC50 [2] | Ki [2] | IC50 [3] | IC50 [4] | IC50 (Carbonic anhydrase 2) | IC50 [5] | IC50 [6] | IC50 [7] | IC50 [8] | IC50 [9] | IC50 (Cytochrome P450 2C9) | Ki (Cytochrome P450 2C9) | IC50 (Cannabinoid receptor 1) | IC50 (Thromboxane-A synthase) | IC50 [10] | IC50 (Melanocortin receptor 5)

CCOC(=O)OC(C)OC1=C(C(=O)Nc2ccccn2)N(C)S(=O)(=O)c2ccccc21 (centres undefined) [AMPIROXICAM]
Not Active: IC50 (B2 bradykinin receptor) | IC50 [1] | IC50 [2] | Ki [2] | IC50 [3] | IC50 [4] | IC50 (Carbonic anhydrase 2) | IC50 [5] | IC50 [6] | IC50 [7] | IC50 [8] | IC50 [9] | IC50 (Cytochrome P450 2C9) | Ki (Cytochrome P450 2C9) | IC50 (Cannabinoid receptor 1) | IC50 (Thromboxane-A synthase) | IC50 [10] | IC50 (Melanocortin receptor 5)

C[C@]12CCC(=O)C=C1CC[C@@H]1[C@@H]2C(=O)C[C@@]2(C)[C@H]1CC[C@]2(O)C(=O)CO [CORTISONE]
Not Active: IC50 (B2 bradykinin receptor) | IC50 [1] | IC50 [2] | Ki [2] | IC50 [3] | IC50 [4] | IC50 (Carbonic anhydrase 2) | IC50 [5] | IC50 [6] | IC50 [7] | IC50 [8] | IC50 [9] | IC50 (Cytochrome P450 2C9) | Ki (Cytochrome P450 2C9) | IC50 (Cannabinoid receptor 1) | IC50 (Thromboxane-A synthase) | IC50 [10] | IC50 (Melanocortin receptor 5)

CCc1ccc(C(=O)C(C)CN2CCCCC2)cc1 (centres undefined) [EPERISONE]
Not Active: IC50 (B2 bradykinin receptor) | IC50 [1] | IC50 [2] | Ki [2] | IC50 [3] | IC50 [4] | IC50 (Carbonic anhydrase 2) | IC50 [5] | IC50 [6] | IC50 [7] | IC50 [8] | IC50 [9] | IC50 (Cytochrome P450 2C9) | Ki (Cytochrome P450 2C9) | IC50 (Cannabinoid receptor 1) | IC50 (Thromboxane-A synthase) | IC50 [10] | IC50 (Melanocortin receptor 5)

CN(C)[C@@H]1C(O)=C(C(N)=O)C(=O)[C@@]2(O)C(O)=C3C(=O)c4c(O)cccc4[C@@](C)(O)[C@H]3[C@H](O)[C@@H]12 [OXYTETRACYCLINE]
Not Active: IC50 (B2 bradykinin receptor) | IC50 [1] | IC50 [2] | Ki [2] | IC50 [3] | IC50 [4] | IC50 (Carbonic anhydrase 2) | IC50 [5] | IC50 [6] | IC50 [7] | IC50 [8] | IC50 [9] | IC50 (Cytochrome P450 2C9) | Ki (Cytochrome P450 2C9) | IC50 (Cannabinoid receptor 1) | IC50 (Thromboxane-A synthase) | IC50 [10] | IC50 (Melanocortin receptor 5)
